Data reported in patent publication US7858635B2 (priority 2005, dated 2010).
Read-outs that look alike come from different tables or passages of the source.

Legend:
M4 muscarinic receptor = biological target: T1, M4 muscarinic receptor (Homo sapiens, UniProt P08173); assay: Functional mobilization of intracellular calcium (FLIPR, Fluo-3), M4-CHO cells; type: cell-based; details: for Emax: read-out: M4 Efficacy
T1 construct: expressed in transfected cells; host or cells: CHO cells (M4-CHO, under puromycin, zeocin and blasticidin selection)
T1 sequence (P08173 1-479): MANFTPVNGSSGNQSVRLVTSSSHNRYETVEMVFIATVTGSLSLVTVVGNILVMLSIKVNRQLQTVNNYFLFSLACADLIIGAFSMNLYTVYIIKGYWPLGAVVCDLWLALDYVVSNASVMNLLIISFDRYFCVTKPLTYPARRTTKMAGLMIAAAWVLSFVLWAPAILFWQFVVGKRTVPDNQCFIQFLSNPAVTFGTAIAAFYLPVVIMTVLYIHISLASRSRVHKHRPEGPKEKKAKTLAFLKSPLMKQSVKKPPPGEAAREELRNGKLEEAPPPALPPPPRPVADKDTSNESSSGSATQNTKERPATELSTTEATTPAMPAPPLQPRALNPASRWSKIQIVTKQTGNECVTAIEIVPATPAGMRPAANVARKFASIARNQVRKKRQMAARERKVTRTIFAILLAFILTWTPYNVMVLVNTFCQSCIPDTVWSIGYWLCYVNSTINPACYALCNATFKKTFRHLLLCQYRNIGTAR
How it was run: (§1)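 Intracellular calcium was tracked by fluorescence (488/540 nm) over 60 sec after compound addition to dye-loaded CHO cells expressing the receptor. Inhibitory activity used a 15 min pre-incubation before carbachol at the subtype EC80.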

M1 muscarinic receptor = biological target: T2, M1 muscarinic receptor (Homo sapiens, UniProt P11229); assay: Functional mobilization of intracellular calcium (FLIPR, Fluo-3), M1-CHO cells; type: cell-based; details: for Emax: read-out: M1 Efficacy
T2 construct: expressed in transfected cells; host or cells: CHO cells (M1-CHO, under zeocin and G418 selection)
T2 sequence (P11229 1-460): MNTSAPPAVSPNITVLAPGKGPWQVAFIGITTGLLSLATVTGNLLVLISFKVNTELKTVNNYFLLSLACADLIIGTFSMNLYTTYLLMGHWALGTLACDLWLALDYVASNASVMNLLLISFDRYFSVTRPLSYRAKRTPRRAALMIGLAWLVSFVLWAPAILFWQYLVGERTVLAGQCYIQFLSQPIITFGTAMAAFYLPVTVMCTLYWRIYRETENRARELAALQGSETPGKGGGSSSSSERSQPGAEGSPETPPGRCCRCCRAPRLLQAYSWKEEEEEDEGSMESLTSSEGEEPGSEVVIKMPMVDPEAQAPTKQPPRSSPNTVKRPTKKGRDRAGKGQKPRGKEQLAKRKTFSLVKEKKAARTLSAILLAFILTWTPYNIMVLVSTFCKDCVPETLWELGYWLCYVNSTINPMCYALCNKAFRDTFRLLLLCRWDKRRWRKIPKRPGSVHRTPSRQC
How it was run: as §1

[1] = compound nos. 1-454, 100% efficacy is the maximum response obtained with the Carbachol control
[2] = compound nos. 1-454, M4-CHO cells, calcium mobilization
[3] = compound nos. 1-454, M1-CHO cells, calcium mobilization
[4] = compound nos. 455-509, 100% efficacy is the maximum response obtained with the Carbachol control

Row | Compound | Emax (M4 muscarinic receptor; [1]) [%] | M4 Activity (M4 muscarinic receptor; [2]) | Emax (M1 muscarinic receptor; [1]) [%] | M1 Activity (M1 muscarinic receptor; [3]) | other results
1 | CCOC(=O)N1C2CCC1CC(N1CCC3(CC1)CN(C(=O)OCCOC)c1ccc(F)cc13)C2 (stereo not drawn) [compound 90] | < 55 | + (activity was measured to be greater than or equal to 4.0 μM) | 65 to 85 | ++ (activity was measured to be between 0.7 μM and 3.0 μM) | 
2 | CCOC(=O)N1CCC(N2CCC3(CC2)CN(C(=O)c2cccc(F)c2)c2ccc(F)cc23)CC1 [compound 410] | < 55 |  | < 65 |  | M4 Activity (M4 muscarinic receptor; compound nos. 1-454): ++ (activity was measured to be between 0.1 μM and 4.0 μM); M1 Activity (M1 muscarinic receptor; compound nos. 1-454): ++ (activity was measured to be between 0.7 μM and 3.0 μM)
3 | Cc1nsc(N2CCC(N3CCC4(CCN(C(=O)N(C)C)c5ccccc54)CC3)CC2)n1 [compound 474] |  |  |  |  | Emax (M4 muscarinic receptor; [4]): 25 to 100%; M4 Activity (M4 muscarinic receptor; compounds 455-509): ++ (activity was measured to be between 2.0 μM and 5.0 μM); Emax (M1 muscarinic receptor; [4]): > 100%; M1 Activity (M1 muscarinic receptor; compounds 455-509): +++ (activity was measured to be less than or equal to 2.0 μM)
4 | CC(=O)N1CC2(CCN(CC3CCN(C(=O)OC(C)C)CC3)CC2)c2cc(F)ccc21 [compound 202] | < 55 | + (activity was measured to be greater than or equal to 4.0 μM) | 65 to 85 | ++ (activity was measured to be between 0.7 μM and 3.0 μM) | 
5 | COC(=O)N1CC2(CCN(C3CC4CCC(C3)N4C(=O)OC(C)C)CC2)c2cc(F)ccc21 (stereo not drawn) [compound 97] | < 55 | + (activity was measured to be greater than or equal to 4.0 μM) | 65 to 85 | +++ (activity was measured to be less than or equal to 0.7 μM) | 
6 | CC(=O)N1CC2(CCN(C3CCN(C(=O)OC(C)C)CC3)CC2)c2cc(C)ccc21 [compound 380] | 55 to 70 |  | 65 to 85 |  | M4 Activity (M4 muscarinic receptor; compound nos. 1-454): ++ (activity was measured to be between 0.1 μM and 4.0 μM); M1 Activity (M1 muscarinic receptor; compound nos. 1-454): +++ (activity was measured to be less than or equal to 0.7 μM)
7 | O=C(OC1CCC1)N1C2CCC1CC(N1CCC3(CCc4ccccc43)CC1)C2 (stereo not drawn) [compound 68] | < 55 | + (activity was measured to be greater than or equal to 4.0 μM) | < 65 | ++ (activity was measured to be between 0.7 μM and 3.0 μM) | 
8 | CS(=O)(=O)N[C@H]1CC2(CCN(C[C@H]3C[C@H]4C=C[C@H]3C4)CC2)c2ccccc21 [compound 70] | 55 to 70 | + (activity was measured to be greater than or equal to 4.0 μM) | 65 to 85 | ++ (activity was measured to be between 0.7 μM and 3.0 μM) | 
9 | Cc1cc(C(=O)N2CC3(CCN(C4CC5CCC(C4)N5C(=O)O[C@H]4CCOC4)CC3)c3cc(F)ccc32)nn1C (stereo partly drawn) [compound 411] |  |  |  |  | M4 Activity (M4 muscarinic receptor; compound nos. 1-454): ++ (activity was measured to be between 0.1 μM and 4.0 μM); M4 Efficacy (M4 muscarinic receptor; [1]): + (efficacy was calculated to be 55% or less); M1 Activity (M1 muscarinic receptor; compound nos. 1-454): +++ (activity was measured to be less than or equal to 0.7 μM); M1 Efficacy (M1 muscarinic receptor; [1]): + (efficacy was calculated to be 65% or less)
10 | CCCOC(=O)N1CC2(CCN(C3CCN(C(=O)OCC)CC3)CC2)c2cc(F)ccc21 [compound 114] | < 55 | + (activity was measured to be greater than or equal to 4.0 μM) | 65 to 85 | ++ (activity was measured to be between 0.7 μM and 3.0 μM) | 
11 | C#CCCOC(=O)N1CCC(N2CCC3(CC2)CN(C(C)=O)c2ccc(F)cc23)CC1 [compound 62] | 55 to 70 | ++ (activity was measured to be between 0.1 μM and 4.0 μM) | < 65 | +++ (activity was measured to be less than or equal to 0.7 μM) | 
12 | CCOC(=O)N[C@H]1CC2(CCN(C[C@H]3C[C@H]4CC[C@H]3C4)CC2)c2ccccc21 [compound 326] | < 55 | + (activity was measured to be greater than or equal to 4.0 μM) | < 65 | + (activity was measured to be greater than or equal to 3.0 μM) | 
13 | CC(=O)NC1CC2(CCN(C3CCCCCC3)CC2)c2ccccc21 (stereo not drawn) [compound 159] | > 70 | + (activity was measured to be greater than or equal to 4.0 μM) | > 85 | ++ (activity was measured to be between 0.7 μM and 3.0 μM) | 
14 | CC(=O)NC1CC2(CCN(C3CC4CCC3C4)CC2)c2ccccc21 (stereo not drawn) [compound 291] | 55 to 70 | + (activity was measured to be greater than or equal to 4.0 μM) | 65 to 85 | ++ (activity was measured to be between 0.7 μM and 3.0 μM) | 
15 | COCCOC(=O)N1C2CCC1CC(N1CCC3(CC1)CN(C(C)=O)c1ccc(F)cc13)C2 (stereo not drawn) [compound 76] | 55 to 70 | ++ (activity was measured to be between 0.1 μM and 4.0 μM) | 65 to 85 | +++ (activity was measured to be less than or equal to 0.7 μM) | 
16 | CCCS(=O)(=O)N1CC2(CCN(C3CC4CCC(C3)N4C(=O)OCC)CC2)c2cc(F)ccc21 (stereo not drawn) [compound 349] | > 70 | ++ (activity was measured to be between 0.1 μM and 4.0 μM) | > 85 | ++ (activity was measured to be between 0.7 μM and 3.0 μM) | 
17 | CCOC(=O)N1CCC(N2CCC3(CC2)CN(C(C)=O)c2ccc(F)cc23)CC1 [compound 413] | < 55 |  | < 65 |  | M4 Activity (M4 muscarinic receptor; compound nos. 1-454): ++ (activity was measured to be between 0.1 μM and 4.0 μM); M1 Activity (M1 muscarinic receptor; compound nos. 1-454): +++ (activity was measured to be less than or equal to 0.7 μM)
18 | Cc1cncc(N2CCC(N3CCC4(CCN(C(=O)N(C)C)c5ccccc54)CC3)CC2)n1 [compound 494] |  |  |  |  | Emax (M4 muscarinic receptor; [4]): 25 to 100%; M4 Activity (M4 muscarinic receptor; compounds 455-509): ++ (activity was measured to be between 2.0 μM and 5.0 μM); Emax (M1 muscarinic receptor; [4]): > 100%; M1 Activity (M1 muscarinic receptor; compounds 455-509): +++ (activity was measured to be less than or equal to 2.0 μM)
19 | Fc1ccc2c(c1)C1(CCN(C3CCOCC3)CC1)CN2 [compound 299] | 55 to 70 | + (activity was measured to be greater than or equal to 4.0 μM) | 65 to 85 | + (activity was measured to be greater than or equal to 3.0 μM) | 
20 | CC(=O)N1CC2(CCN(C3CCC(C(C)C)CC3)CC2)c2cc(F)ccc21 (stereo not drawn) [compound 226] | < 55 | + (activity was measured to be greater than or equal to 4.0 μM) | < 65 | + (activity was measured to be greater than or equal to 3.0 μM) | 
21 | CC(C)COC(=O)N1C2CCC1CC(N1CCC3(CC1)COc1ccc(F)cc13)C2 (stereo not drawn) [compound 160] | > 70 | ++ (activity was measured to be between 0.1 μM and 4.0 μM) | > 85 | +++ (activity was measured to be less than or equal to 0.7 μM) | 
